# “Also recorded” adds a separate entry of the source.
# Test system: circulating macrophage/monocyte population
# Test: Monocyte/macrophage depletion with gadolinium chloride in the NaIO3 model
# Format: in vivo, rat
# Excerpt: To determine the identity of the autofluorescent cells that coincide with the reticular pattern of FAF, excised retina were stained for with markers of the innate immune system, avoiding the 488 nm channel. Iba1 is a pan-microglial/macrophage marker and in the rat retina; antibodies against it identify the major phagocytic cell populations. […] Further, when compared against photoreceptor nuclear staining, this curvilinear pattern is seen to lie interposed between folds of the deformed ONL. This pattern of Iba1^+ cells corresponds with the pattern of hyperfluorescence observed in vivo by FAF imaging, and with the pattern of autofluorescent cells in excised retina. […] Importantly, at 7 days after NaIO3, all RPE cells are absent from the posterior eye cup, confirming that these cells cannot be responsible for the observed FAF. Also, identification of the autofluorescent cells as phagocytic was confirmed by comparison of imaging to preparations in which monocyte/macrophage depletion has been undertaken. Such depletion was achieved by treatment with gadolinium chloride (GAD). […]
smiles,measurement,setting,value
"[Cl][Gd]([Cl])[Cl] [GAD, gadolinium chloride]",area of damage,7 days after NaIO3 and simultaneous GAD depletion,smaller areas of damage
same,FAF pattern of NaIO3-induced outer retinal damage,"GAD-treated vs untreated, after NaIO3",far less well defined reticular patterns of FAF; also recorded: profound alteration of the NaIO3-induced pattern of FAF and DNIRA; also recorded: less well-demarcated borders

# Source: patent US12377171B2, “Methods for treating and diagnosing blinding eye diseases” (Translatum Medicus Inc., priority 2012, dated 2025)
